Assay results from patent publication US20140011769A1, “Methods of Treating Retroviral Infections and Related Dosage Regimes” (Chimerix, Inc., priority 2012, published 2014).

System: HTLV-I proviral DNA
Assay: PCR of proviral HTLV-I DNA in co-cultured PBMCs
Format: cell-based
Settings: for relative intensity of amplified HTLV-I versus infected controls (PBMC+MT-2 cells): two and four weeks, all concentrations; for concentration giving less integration of proviral DNA by PCR: weeks 2 and 4
Procedure: Co-Culture for HTLV-I Replication: Cell cultures were incubated at 37° C./5% CO2 for four weeks. Cell viability and density was monitored by trypan blue dye exclusion test. Cell density was readjusted to 8×10^5 cells per mL on days 3, 7, 10, 14, 21 and 28. Compound was added with the half-volume fresh medium exchange on days 3, 7, and 10. Supernatant was collected on days 14, 21 and 28 for measurement of HTLV-I virus replication by p19 Gag ELISA. Cell samples were also collected on days 14 and 28 for genomic DNA extraction and PCR analysis of HTLV-I proviral DNA. Untreated PBMCs co-cultured with MT-2 cells, PBMCs alone, and mitomycin C-treated MT-2 cells alone were cultured in parallel as controls.
(§1) PCR of Proviral HTLV-I DNA: The presence of HTLV-I proviral DNA at 2 and 4 weeks in treated and untreated PBMC cells was examined using a PCR assay. Total DNA was extracted from frozen cell pellets using Qiagen DNEasy Blood and Tissue kits according to the manufacturer's recommended method for extraction from cultured cells. DNA was eluted in 200 μl of Buffer AE and the concentration was determined by absorbance at 260 nm in a Spectramax 386 Plus plate reader. Fifty nanograms of extracted DNA was subjected to two separate PCR amplifications using primer sets for HTLV-I and human GAPDH. Amplifications were performed using PCR primer sets designed at ImQuest BioSciences and synthesized by IDT (Coraville, Id.). Amplification of HTLV-I proviral DNA was performed using 50 ng of extracted DNA in a 25 μl reaction volume with TaqPro complete (Denville Scientific, Metuchen, N.J.) and DNA oligonucleotide primers (0.2 μM each) HTLV-3281-F (5′-AACTTCAAGCCCTACTTGGCGAGA-3′[SED ID NO.: 1]) and HTLV-3666-R (5′-TGTATGGTTTGGCAGAGTAGCCCA-3′ [SED ID NO.: 2]). Amplification of human GAPDH DNA sequences was performed using 50 ng of extracted DNA in a 25 μl reaction volume with TaqPro complete and DNA oligonucleotide primers (0.2 μM each) hGAPDH-gF1 (5′-GAAGGAAATGAATGGGCAGCCGTT-3′ [SED ID NO.: 3]) and GAPDH-gR1 (5′-ATTTGCCAAGTTGCCTGTCCTTCC-3′ [SED ID NO.: 4]). Amplification conditions for both HTLV-I and GAPDH consisted of an initial denaturation step of 95° C. for 5 min followed by 40 cycles of 95° C. for 30 sec, 62° C. for 30 sec, 72° C. for 45 sec and a final extension of 72° C. for 5 min. The amplified DNA products were evaluated by agarose gel electrophoresis and ethidium bromide staining.
as §1, with “AGA-3′ [SED” for “AGA-3′[SED”, “5])” for “1])”, “6]).” for “2]).”, “7])” for “3])”, “8]). […]” for “4]). Amplification conditions for both HTLV-I and GAPDH consisted of an initial denaturation step of 95° C. for 5 min followed by 40 cycles of 95° C. for 30 sec, 62° C. for 30 sec, 72° C. for 45 sec and a final extension of 72° C. for 5 min. The amplified DNA products were evaluated by agarose gel electrophoresis and ethidium bromide staining.”

| SMILES | relative intensity of amplified HTLV-I versus infected controls (PBMC+MT-2 cells) | concentration giving less integration of proviral DNA by PCR | concentration inhibiting accumulation of HTLV proviral DNA (two weeks of treatment) [µM] | further results |
| --- | --- | --- | --- | --- |
| Cc1cn([C@H]2C[C@H](N=[N+]=[N-])[C@@H](CO)O2)c(=O)[nH]c1=O [AZT, 3′-azido-2′,3′-dideoxythymidine] | either equal or less than | above 0.1 μM | – | – |
| Nc1ccn(C[C@@H](CO)OCP(=O)(O)O)c(=O)n1 [Cidofovir, (S)-9-(3-hydroxy-2-phosphonylmethoxypropyl)cytosine] | – | – | 100 | – |
| CCCCCCCCCCCCCCCCOCCCOP(=O)(O)CO[C@H](CO)Cn1ccc(N)nc1=O [HDP-CDV, hexadecyloxypropyl cidofovir] | – | – | ≥ 0.2 | concentration inhibiting accumulation of HTLV proviral DNA (four weeks of treatment): all concentrations |
| CCCCCCCCCCCCCCCCOCCCOP(=O)(O)CO[C@H](C)Cn1cnc2c(N)ncnc21 [HDP-TFV, 3-(hexadecyloxy)propyl hydrogen ((R)-1-(6-amino-9H-purin 9-yl)propan-2-yloxy)methylphosphonate] | – | – | – | inhibition of HTLV proviral DNA accumulation (four weeks of treatment, lower concentrations): apparent |
| C[C@H](Cn1cnc2c(N)ncnc21)OCP(=O)(O)O [Tenofovir, (R)-9-(2-phosphonylmethoxypropyl)adenine] | either equal or less than | 25 µM | – | – |
